Measurements as given in the supplement of paper PMC5908809.

How the values were obtained:
Test in all cases: relative IC50 (inflection point of fitted viability curve, relative to fitted max inhibition); higher = less sensitive
Conditions in all cases: 72 h
DERL-7 (IL-2 2.5 ng/mL) = test system: DERL-7 (IL-2 2.5 ng/mL)
Method: (§1)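 Drug sensitivity and resistance testing: 5 concentrations over a 10,000-fold range, 72 h at 37 °C, viability by CellTiter-Glo normalised to DMSO and benzethonium chloride controls. IC50 is the inflection point of a logistic fit (min fixed at 0, max fitted), so it is relative to the fitted maximal inhibition. Kept only where fitted max inhibition is at least 50%.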

KAI3 (IL-2 2.5 ng/mL) = test system: KAI3 (IL-2 2.5 ng/mL)
Method: as §1

NK-YS (IL-2 2.5 ng/mL) = test system: NK-YS (IL-2 2.5 ng/mL)
Method: as §1

NKL (IL-2 2.5 ng/mL) = test system: NKL (IL-2 2.5 ng/mL)
Method: as §1

SNK-6 (IL-2 2.5 ng/mL) = test system: SNK-6 (IL-2 2.5 ng/mL)
Method: as §1

YT (IL-2 2.5 ng/mL) = test system: YT (IL-2 2.5 ng/mL)
Method: as §1

KHYG-1 (IL-2 2.5 ng/mL) = test system: KHYG-1 (IL-2 2.5 ng/mL)
Method: as §1

NK-92 (IL-2 2.5 ng/mL) = test system: NK-92 (IL-2 2.5 ng/mL)
Method: as §1

IMC-1 (IL-2 20 ng/mL) = test system: IMC-1 (IL-2 20 ng/mL)
Method: as §1

SMILES | relative IC50 (DERL-7 (IL-2 2.5 ng/mL)) [nM] | relative IC50 (KAI3 (IL-2 2.5 ng/mL)) [nM] | relative IC50 (NK-YS (IL-2 2.5 ng/mL)) [nM] | relative IC50 (NKL (IL-2 2.5 ng/mL)) [nM] | relative IC50 (SNK-6 (IL-2 2.5 ng/mL)) [nM] | relative IC50 (YT (IL-2 2.5 ng/mL)) [nM] | relative IC50 (KHYG-1 (IL-2 2.5 ng/mL)) [nM] | relative IC50 (NK-92 (IL-2 2.5 ng/mL)) [nM] | relative IC50 (IMC-1 (IL-2 20 ng/mL)) [nM]
CN(C)C1CCN(C(=O)c2ccc(NC(=O)Nc3ccc(-c4nc(N5CCOCC5)nc(N5CCOCC5)n4)cc3)cc2)CC1 [Gedatolisib] | 27.4 | 85.9 | 32.5 | 14.7 | 75.6 | 147 | – | – | –
CCCS(=O)(=O)Nc1ccc(F)c(C(=O)c2c[nH]c3ncc(-c4ccc(Cl)cc4)cc23)c1F [Vemurafenib] | 1760 | 1910 | 3080 | 1900 | 3170 | 1910 | 1130 | 1610 | –
O=c1[nH]cc(F)c(=O)[nH]1 [Fluorouracil] | 2490 | – | 1040 | 1230 | 1190 | 820 | 2010 | 526 | –
CC(C)(C)c1cc(NC(=O)Nc2ccc(-c3cn4c(n3)sc3cc(OCCN5CCOCC5)ccc34)cc2)no1 [Quizartinib] | – | 165 | – | – | – | – | 233 | – | > 1000
CCn1cc(-c2ccnc3[nH]c(-c4cccc(CN(C)C)c4)cc23)c(-c2ccc(NC(=O)N(C)C)cc2)n1 | 17.6 | – | 12.3 | – | 4.21 | – | 39.7 | – | 158
CC(=O)O[C@@]12CO[C@@H]1C[C@H](O)[C@@]1(C)C(=O)[C@H](O)C3=C(C)[C@@H](OC(=O)[C@H](O)[C@@H](NC(=O)OC(C)(C)C)c4ccccc4)C[C@@](O)([C@@H](OC(=O)c4ccccc4)[C@H]21)C3(C)C [Docetaxel] | 3.18 | 2.14 | 2.02 | 1.84 | 0.8 | 2.24 | 3.9 | 10.9 | 3.14
Nc1nccc(-c2c(-c3ccc(F)cc3)ncn2C2CCCCC2)n1 | – | 39.1 | – | – | 2170 | – | – | – | –
O=C(Cc1ccc(-c2ccc(OCCN3CCOCC3)cc2)cn1)NCc1ccccc1 [KX2-391] | 28.1 | 28.1 | 26.1 | 27.8 | 5.46 | 23 | 30.3 | 12.3 | 34.4
COc1cccc2cc(-c3nc([C@H]4CC[C@H](C(=O)O)CC4)n4ncnc(N)c34)[nH]c12 [OSI-027] | 1220 | 775 | 1820 | 342 | 564 | 1160 | 1500 | 579 | –
CCn1c(=O)c(-c2cc[nH]n2)cc2c(C)nc(N)nc21 [Voxtalisib] | 457 | 818 | 1340 | 880 | 3190 | 1110 | 1640 | 685 | –
O=C(c1ccc(OCCN2CCCCC2)cc1)c1c(-c2ccc(O)cc2)sc2cc(O)ccc12 [Raloxifene] | 1740 | 2770 | – | 1680 | 4500 | 3070 | 1740 | 3290 | –
